Source: the NIST ThermoML archive (doi:10.1021/je7002918)

Assay: xn = mol fraction of the nth substance listed
Settings: 298.15 K, 101 kPa, Liquid

CC(C)(C)Cl [2-chloro-2-methylpropane] + Cc1ccccc1
Settings | excess molar volume [m3/mol]
x1 = 0.0932 | -1.14e-07
x1 = 0.1243 | -1.48e-07
x1 = 0.1832 | -2.11e-07
x1 = 0.2556 | -2.75e-07
x1 = 0.3342 | -3.28e-07
x1 = 0.3895 | -3.54e-07
x1 = 0.428 | -3.68e-07
x1 = 0.4952 | -3.81e-07
x1 = 0.5467 | -3.76e-07
x1 = 0.5985 | -3.64e-07
x1 = 0.6356 | -3.53e-07
x1 = 0.6889 | -3.2e-07
x1 = 0.8102 | -2.26e-07
x1 = 0.8961 | -1.3e-07
x1 = 0.9405 | -7.4e-08

CC(C)(C)Cl [2-chloro-2-methylpropane] + Cc1ccccc1C
Settings | excess molar volume [m3/mol]
x1 = 0.0698 | -1.32e-07
x1 = 0.1023 | -1.86e-07
x1 = 0.1642 | -2.64e-07
x1 = 0.209 | -3.06e-07
x1 = 0.2653 | -3.54e-07
x1 = 0.3321 | -3.88e-07
x1 = 0.4187 | -4.22e-07
x1 = 0.4979 | -4.32e-07
x1 = 0.5984 | -4.28e-07
x1 = 0.6627 | -4.16e-07
x1 = 0.7452 | -3.72e-07
x1 = 0.8056 | -3.22e-07
x1 = 0.9113 | -1.88e-07
x1 = 0.9453 | -1.24e-07

CC(C)(C)Cl [2-chloro-2-methylpropane] + c1ccccc1
Settings | excess molar volume [m3/mol]
x1 = 0.0821 | -9.4e-08
x1 = 0.1115 | -1.22e-07
x1 = 0.2016 | -1.8e-07
x1 = 0.2989 | -2.31e-07
x1 = 0.314 | -2.4e-07
x1 = 0.3587 | -2.46e-07
x1 = 0.3959 | -2.52e-07
x1 = 0.446 | -2.58e-07
x1 = 0.5551 | -2.45e-07
x1 = 0.6721 | -2.06e-07
x1 = 0.7422 | -1.74e-07
x1 = 0.828 | -1.28e-07
x1 = 0.914 | -6.6e-08

CCC(C)Cl (stereo unspecified) [2-chlorobutane] + c1ccccc1
Settings | excess molar volume [m3/mol]
x1 = 0.0696 | 1e-09
x1 = 0.084 | 2e-09
x1 = 0.1122 | 1e-09
x1 = 0.1524 | 2e-09
x1 = 0.1983 | -2e-09
x1 = 0.2184 | -5e-09
x1 = 0.2744 | -5e-09
x1 = 0.3652 | -1.8e-08
x1 = 0.4665 | -2.6e-08
x1 = 0.5692 | -4.4e-08
x1 = 0.6062 | -4.8e-08
x1 = 0.752 | -5.4e-08
x1 = 0.8041 | -4.6e-08
x1 = 0.8573 | -4e-08
x1 = 0.9032 | -3.5e-08
x1 = 0.9405 | -2.5e-08

CCC(C)Cl (stereo unspecified) [2-chlorobutane] + Cc1ccccc1
Settings | excess molar volume [m3/mol]
x1 = 0.0856 | -6.6e-08
x1 = 0.1276 | -9.6e-08
x1 = 0.2495 | -1.73e-07
x1 = 0.3441 | -2.12e-07
x1 = 0.4723 | -2.32e-07
x1 = 0.5018 | -2.34e-07
x1 = 0.5569 | -2.32e-07
x1 = 0.6025 | -2.21e-07
x1 = 0.6712 | -2.06e-07
x1 = 0.7991 | -1.46e-07
x1 = 0.9046 | -7.2e-08
x1 = 0.9432 | -4.4e-08

CC(C)(C)Cl [2-chloro-2-methylpropane] + Cc1cccc(C)c1
Settings | excess molar volume [m3/mol]
x1 = 0.0875 | -8.4e-08
x1 = 0.1216 | -1.16e-07
x1 = 0.1973 | -1.76e-07
x1 = 0.2724 | -2.22e-07
x1 = 0.3516 | -2.58e-07
x1 = 0.4307 | -2.84e-07
x1 = 0.4832 | -2.9e-07
x1 = 0.5214 | -2.94e-07
x1 = 0.5768 | -2.86e-07
x1 = 0.658 | -2.66e-07
x1 = 0.7305 | -2.38e-07
x1 = 0.8543 | -1.52e-07
x1 = 0.9112 | -9.8e-08

CCC(C)Cl (stereo unspecified) [2-chlorobutane] + Cc1cccc(C)c1
Settings | excess molar volume [m3/mol]
x1 = 0.0694 | -5.4e-08
x1 = 0.1004 | -7.8e-08
x1 = 0.139 | -9.4e-08
x1 = 0.2117 | -1.22e-07
x1 = 0.2712 | -1.43e-07
x1 = 0.3438 | -1.5e-07
x1 = 0.4061 | -1.56e-07
x1 = 0.4884 | -1.62e-07
x1 = 0.5442 | -1.62e-07
x1 = 0.601 | -1.56e-07
x1 = 0.7408 | -1.34e-07
x1 = 0.8431 | -1.06e-07
x1 = 0.9249 | -6.2e-08

CCC(C)Cl (stereo unspecified) [2-chlorobutane] + Cc1ccc(C)cc1
Settings | excess molar volume [m3/mol]
x1 = 0.0881 | -6.5e-08
x1 = 0.163 | -1.26e-07
x1 = 0.3481 | -2.26e-07
x1 = 0.4012 | -2.48e-07
x1 = 0.4742 | -2.54e-07
x1 = 0.5001 | -2.58e-07
x1 = 0.5534 | -2.52e-07
x1 = 0.6264 | -2.34e-07
x1 = 0.6784 | -2.06e-07
x1 = 0.738 | -1.75e-07
x1 = 0.7871 | -1.46e-07
x1 = 0.8758 | -8.6e-08
x1 = 0.9179 | -5.2e-08

CC(C)(C)Cl [2-chloro-2-methylpropane] + Cc1ccc(C)cc1
Settings | excess molar volume [m3/mol]
x1 = 0.0816 | -1.02e-07
x1 = 0.1212 | -1.48e-07
x1 = 0.1874 | -2.12e-07
x1 = 0.2585 | -2.68e-07
x1 = 0.308 | -3.04e-07
x1 = 0.3746 | -3.32e-07
x1 = 0.4539 | -3.56e-07
x1 = 0.5117 | -3.57e-07
x1 = 0.5918 | -3.44e-07
x1 = 0.6635 | -3.18e-07
x1 = 0.7516 | -2.62e-07
x1 = 0.8683 | -1.56e-07
x1 = 0.9321 | -8.2e-08

CCC(C)Cl (stereo unspecified) [2-chlorobutane] + Cc1ccccc1C
Settings | excess molar volume [m3/mol]
x1 = 0.0784 | -6.6e-08
x1 = 0.121 | -1.12e-07
x1 = 0.1509 | -1.34e-07
x1 = 0.166 | -1.47e-07
x1 = 0.2243 | -2.01e-07
x1 = 0.314 | -2.62e-07
x1 = 0.3921 | -2.92e-07
x1 = 0.4879 | -3.1e-07
x1 = 0.5552 | -2.95e-07
x1 = 0.669 | -2.46e-07
x1 = 0.7282 | -2.12e-07
x1 = 0.8091 | -1.42e-07
x1 = 0.8816 | -8.6e-08
x1 = 0.9052 | -6.4e-08
